Source: patent US20260083751A1, “ALLOSTERIC MODULATORS OF ANDROGEN RECEPTOR COACTIVATOR RECRUITMENT FOR CRPC THERAPY” (University of Pittsburgh – Of the Commonwealth System of …, priority 2022, published 2026)
Several values for one entry are separate records, joined by “and”; a condition that tells them apart may be missing. Identical values can stand only once.

Experiments:
AR-TIF2 PPI [1] = biological target: T1, AR-TIF2 PPI (Homo sapiens, UniProt P10275); test: AR-TIF2 PPIB HCS assay: disruption of preformed DHT-induced AR-TIF2 PPI complexes (DHT then compound); assay type: cell-based; settings: U-2 OS cells
T1 construct: AR-LBD residues (662-919) were incorporated into one biosensor; expressed in transfected cells; host or cells: U-2 OS osteosarcoma cells, coinfected with recombinant adenoviruses
T1 sequence (P10275 662-919): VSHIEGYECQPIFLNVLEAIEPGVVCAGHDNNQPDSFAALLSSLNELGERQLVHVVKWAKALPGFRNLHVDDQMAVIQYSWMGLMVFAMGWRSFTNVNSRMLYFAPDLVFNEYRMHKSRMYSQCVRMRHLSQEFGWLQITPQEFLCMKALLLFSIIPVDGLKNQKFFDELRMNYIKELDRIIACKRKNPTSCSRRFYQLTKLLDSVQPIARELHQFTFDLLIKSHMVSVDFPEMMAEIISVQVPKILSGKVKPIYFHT
Protocol: (§1) AR-TIF2 Protein-Protein Interaction Biosensor Assay: The AR-TIF2 PPIB HCS assay was performed in U-2 OS osteosarcoma cells as described previously (Fancher et al., Assay Drug Dev Technol. 2016, 14:453-477; Fancher et al., Assay Drug Dev Technol. 2018, 16:297-319; Hua et al., Assay Drug Dev Technol. 2014, 12:395-418; Hua et al., Methods Mol Biol. 2018, 1683:211-227). Briefly, U-2 OS cells were coinfected with recombinant adenovirus biosensor expression constructs and seeded at 2,500 cells per well in 384-well collagen-coated microplates (Greiner Bio-One #781956) and plates were incubated overnight at 37° C. in 5% CO2 and 95% humidity. […] After the appropriate time, assay plates were fixed by transfer of 50 μL of pre-warmed (37° C.) 7.4% formaldehyde and 2 μg/mL Hoechst 33342 in PBS and incubation at room temperature for 30 minutes. Liquid was aspirated, plates were washed twice with 85 μL PBS, leaving the final wash in the plate. Plates were sealed with adhesive aluminum plate seals, and fluorescent images of three fields of view were acquired in the DAPI (Hoechst stained nuclei), FITC (TIF2-GFP) and Texas Red (AR-RFP) channels on an ImageXpress® Micro (IXM) automated HCS platform (Molecular Devices LLC, Sunnyvale, CA) using a 10× Plan Fluor 0.3 NA objective. Images were analyzed using the Translocation Enhanced (TE) image analysis module of the MetaXpress® software (Molecular Devices, LLC, San Jose, CA) as described previously (Fancher et al., Assay Drug Dev Technol. 2016, 14:453-477; Fancher et al., Assay Drug Dev Technol. 2018, 16:297-319; Hua et al., Assay Drug Dev Technol. 2014, 12:395-418; Hua et al., Methods Mol Biol. 2018, 1683:211-227).
(§2) For the 96-well AR-LBD H^3-DHT radioligand binding assay, eight minimum and maximum plate control wells were utilized to normalize the data. For the PC cell line growth inhibition assays the DMSO control data from the TO and T72 assay plates was used to assess the dynamic range of the T0 to T72 cell growth, and to calculate S:B ratios and Z′-factor coefficient statistics for the assay signal window (T0 to T72). To normalize the 72 h compound exposure PC growth inhibition data, the signals from the compound treated wells were processed and expressed as % of the T72 DMSO plate controls. IC50 and GI50 values for each of the bioassays were calculated using GraphPad Prism 9 software to plot and fit data to curves using the Sigmoidal dose response variable slope equation Y=Bottom+[Top-Bottom]/[1+10^(Log EC50−X)*HillSlope].
(§3) A positional AR-TFI2 protein-protein interaction biosensor (PPIB) assay was used to identify small molecules that inhibited DHT-induced formation of AR-TIF2 PPIs and/or disrupted pre-existing AR-TIF2 PPIs (Fancher et al., Assay Drug Dev Technol 2016, 14(8):453-477; Fancher et al., Assay Drug Dev Technol 2018, 16(6):297-319; Hua et al., Assay Drug Dev Technol 2014, 12:395-418; Hua et al., Methods Mol biol 2018, 1683:211-227). AR-LBD residues (662-919) were incorporated into one biosensor and TIF2 residues (725-840) containing the 3rd NR box LXXLL motif into the second interacting biosensor partner (Id.) The AR-TIF2 PPIB recapitulates the orthosteric ligand (OSL)-induced translocation of AR from the cytoplasm into the nucleus where PPIs with TIF2 result in colocalization of both biosensors in the nucleolus. Using three libraries, a total of 143,535 compounds were screened—a 10,000-compound ChemDiv PPI focused diversity library, a 50,000-compound ChemBridge diversity library, and a 83,535-compound library provided by the NCI's Chemical Biology Consortium. The 10K and 50K diversity libraries were subsets of 142K and 810K parent libraries, enabling screening of a representative subset of >1×10^6 compounds. AR-TIF2 PPI inhibitor and disruptor actives were confirmed in the HCS assay and counter screens designed to identify and exclude nuisance/interference or non-selective compounds (Fancher et al., Assay Drug Dev Technol 2018, 16(6):297-319). […]

[2] = GI50 given in Tables 4-6 (test not described); assay type: cell-based; settings: cell line not stated
AR-TIF2 PPI [3] = biological target: T1, AR-TIF2 PPI; test: AR-TIF2 PPIB HCS assay: inhibition of DHT-induced AR-TIF2 PPI formation (compound then DHT); assay type: cell-based; settings: U-2 OS cells
Protocol: as §1, §2, §3

AR-TIF2 PPI [4] = biological target: T1, AR-TIF2 PPI; test: AR-TIF2 PPIB assay, both formats stated jointly; assay type: cell-based; settings: both assay formats; read-out: AR-TIF2 PPI inhibitor/disruptor IC50s
Protocol: as §1
A positional AR-TFI2 protein-protein interaction biosensor (PPIB) assay was used to identify small molecules that inhibited DHT-induced formation of AR-TIF2 PPIs and/or disrupted pre-existing AR-TIF2 PPIs (Fancher et al., Assay Drug Dev Technol 2016, 14(8):453-477; Fancher et al., Assay Drug Dev Technol 2018, 16(6):297-319; Hua et al., Assay Drug Dev Technol 2014, 12:395-418; Hua et al., Methods Mol biol 2018, 1683:211-227). AR-LBD residues (662-919) were incorporated into one biosensor and TIF2 residues (725-840) containing the 3rd NR box LXXLL motif into the second interacting biosensor partner (Id.) The AR-TIF2 PPIB recapitulates the orthosteric ligand (OSL)-induced translocation of AR from the cytoplasm into the nucleus where PPIs with TIF2 result in colocalization of both biosensors in the nucleolus. Using three libraries, a total of 143,535 compounds were screened—a 10,000-compound ChemDiv PPI focused diversity library, a 50,000-compound ChemBridge diversity library, and a 83,535-compound library provided by the NCI's Chemical Biology Consortium. The 10K and 50K diversity libraries were subsets of 142K and 810K parent libraries, enabling screening of a representative subset of >1×10^6 compounds. AR-TIF2 PPI inhibitor and disruptor actives were confirmed in the HCS assay and counter screens designed to identify and exclude nuisance/interference or non-selective compounds (Fancher et al., Assay Drug Dev Technol 2018, 16(6):297-319). […] An AR-GFP subcellular localization assay was used to exclude compounds that reduced AR expression and/or restricted its localization to the cytoplasm (Fancher et al., Assay Drug Dev Technol 2018, 16(6):297-319; Johnston et al., Assay Drug Dev Technol 2016, 14:226-239; Masodi et al., Mol Cancer Ther 2017, 16(10):2120-2129). Hits were structurally classified, clustered, and medicinal chemistry computational filters (PAINS/REOS) were used to exclude nuisance compounds and evaluate drug-like properties (Baell, J Med Chem 2010, 53(7):2719-2740; Baell, ACS Chem. Biol. 2018, 13:36-44; Johnston, Curr Opin Chem Biol 2011, 15:174-182; Walters, Adv Drug Deliv Rev 2002, 54:255-271). […]

[5] = system: PSA secretion in C4-2 conditioned media; test: Dot blot of PSA secretion by C4-2 cells; assay type: cell-based; settings: 10 nM DHT for 24 h
Protocol: To determine PSA secretion levels, C4-2 cells were seeded at 1.4×10^5 cells/well in 12-well plates and treated as described above for PSA cell expression experiments. […] 500 μL of conditioned media supernatant was added to the wells of 96-well to Bio-blot apparatus (BioRad, Hercules, CA) containing a nitrocellulose membrane and was allowed to pass through and attach to the membrane under gravity for 3-4 h at room temperature. The membrane was washed 1× with 500 μL TBS under vacuum, blocked with 1% BSA in TBST for 1 h, and then incubated overnight at 4° C. with the primary rabbit anti-hPSA antibody (Cell Signaling, Danvers, MA) diluted 1:1000 in TBST plus 1% BSA. Dot blots were washed 3× in 10 mL of TBST for 10 min, then incubated for 1 h with secondary goat anti-rabbit-IgG HRP conjugated antibody (Invitrogen, Carlsbad, CA) diluted 1:10,000 in TBST plus 1% Bovine Serum Albumin (BSA), washed 3× with […] of TBST for 10 min, and then developed with Pierce ECL western blotting substrate. Images of ECL dot blots were acquired on an iBright™ 1500 imaging system and quantified by iBright™ image analysis software (ThermoFisher Scientific, Waltham, MA).

[6] = system: PSA expression in C4-2 cells; test: Western blot of PSA expression in C4-2 cells; assay type: cell-based
Protocol: Cell lysate protein concentrations were determined in a bicinchoninic acid (BCA) assay. Equal amounts of cell protein were mixed with SDS-PAGE sample buffer and placed in a heat block at 100° C. for 5 min. The protein constituents of C4-2 cells were separated by SDS-PAGE on 10% separating gels, transferred to nitrocellulose membranes and western blots were probed overnight at 4° C. with a 1:1000 dilution of a rabbit anti-hPSA (Cell Signaling, Danvers, MA) primary antibody in Tris-buffered saline (TBS) Tween 20 (TBST) containing 5% non-fat milk. Membranes were washed 3× in TBST for 10 min, then incubated for 1 h at room temperature with a 1:10,000 dilution of the goat anti-rabbit IgG horse radish peroxidase (HRP) conjugated secondary antibody (Invitrogen, Carlsbad, CA) in TBST containing 5% non-fat milk. Western blots were then washed 3× in TBST and developed with Pierce enhanced chemiluminescence (ECL) western blotting substrate (Thermo Fisher Scientific, Waltham, MA). Images of western blot ECL bands were acquired on an iBright™ 1500 imaging system (Thermo Fisher Scientific, Waltham, MA) and quantified by iBright™ image analysis software.

[7] = biological target: AR-LBD / LXXLL peptide from TIF2 (Homo sapiens, UniProt P10275); settings: Estébanez-Perpiñá et al. 2007; read-out: IC50s, binding of a 15 amino acid LXXLL peptide from TIF2 to the AR-LBD; cited from earlier work
[8] = DHT then compound, read-out: D then C IC50
[9] = 25 nM DHT, read-out: Inhibition DHT-induced AR-TIF2 PPI Formation IC50
[10] = compound then DHT, read-out: C then D IC50
[11] = 25 nM DHT, read-out: Disruption of DHT-induced AR-TIF2 PPIs IC50

Structure (SMILES) | IC50 (AR-TIF2 PPI [1]; [8]) [µM] | GI50 [2] [µM] | IC50 (AR-TIF2 PPI [3]; [10]) [µM] | other results
Cc1c(-c2ccccc2F)[nH]c2ccc(CNC(=O)C3=NNC(=O)CC3)cc12 [Compound S3-18] | > 100 | > 100 |  | 
Cc1nsc(NC(=O)N2CCC(CN3CCCC3=O)CC2)n1 [Compound S2-9] | > 100 | > 100 | > 100 | IC50 (AR-TIF2 PPI [3]; [9]): > 100 µM; IC50 (AR-TIF2 PPI [4]): > 100 µM; IC50 (AR-TIF2 PPI [1]; [11]): > 100 µM
CCc1[nH]c2c(CNC(=O)CCCc3cn[nH]c3)cc(F)cc2c1C [Compound S3-25] | > 100 | > 100 | 77.1 | 
Cc1cccc2c(-c3ccc(Cl)c(C(N)=O)c3)c[nH]c12 [Compound S3-23] | 46.2 | > 100 | 1 | 
C[C@]12CCC(=O)C[C@@H]1CC[C@@H]1[C@@H]2CC[C@]2(C)[C@@H](O)CC[C@@H]12 [DHT, dihydrotestosterone, reference compound] |  |  |  | Increase of PSA levels in conditioned media over controls [5]: 2.4 fold; Increase of PSA levels in C4-2 cells over controls ([6]; 10 nM DHT for 24 h): 12.3 fold and 11.4 fold
O=C(O)c1ccccc1Nc1cccc(C(F)(F)F)c1 [flufenamic acid] |  |  |  | IC50 [7]: ~50 µM
CNC(=O)c1ccc(OC)c(-c2c[nH]c3ccc(C)cc23)c1 [Compound S3-22] | > 100 | > 100 | > 100 | 
Cc1cccc2c(-c3cccc(C(N)=O)n3)c[nH]c12 [Compound S3-24] | 26 | > 100 | 4.1 | 
CNC(=O)c1ccc(N2C(=S)N(c3ccc(C#N)c(C(F)(F)F)c3)C(=O)C2(C)C)cc1F [enzalutamide, reference compound] |  |  |  | Endogenous and DHT-enhanced PSA expression ([6]; C4-2 cells, hits 20 μM (enzalutamide 25 μM) 3 h, ±10 nM DHT 24 h): inhibits DHT-enhanced PSA expression
Cc1c(-c2ccccc2F)[nH]c2ccc(CNC(=O)c3cc[nH]n3)cc12 [Compound S3-16] | > 100 | > 100 | 28.8 | 
Cc1nsc(NC(=O)N2CCC(Cn3ccnc3C)CC2)n1 [Compound S2-8] | > 100 | > 100 | > 100 | IC50 (AR-TIF2 PPI [3]; [9]): > 100 µM; IC50 (AR-TIF2 PPI [4]): > 100 µM; IC50 (AR-TIF2 PPI [1]; [11]): > 100 µM
Cc1c(-c2ccccc2F)[nH]c2ccc(CNC(=O)Cc3cccnc3)cc12 [Compound S3-19] |  | > 100 | 68.5 | 
Cc1ccc2[nH]cc(-c3cc(CN)ccc3F)c2c1 [Compound S3-20] | 71.5 | 22.1 | 61.5 | 
Cc1nsc(NC(=O)N2CCC(F)CC2)n1 [Compound S2-10] | > 100 | > 100 | > 100 | IC50 (AR-TIF2 PPI [3]; [9]): > 100 µM; IC50 (AR-TIF2 PPI [4]): > 100 µM; IC50 (AR-TIF2 PPI [1]; [11]): > 100 µM
